From US20180264146A1, “NOVEL IMAGING COMPOUNDS” (AC IMMUNE S.A., priority 2015, published 2018)
pIC50: −log10 of the molar value.

What was measured:
[1] = molecular target: Tau in human Alzheimer disease brain homogenate (stage Braack V), [18F]-labeled Tau-Reference binder (Homo sapiens, UniProt P10636); assay: Tau radio-binding competition assay; settings: competition with [18F]-labeled Tau-Reference binder, human AD brain homogenate
Protocol: Tau Radio-Binding Competition Assay
20 μg of human Alzheimer disease brain homogenate (stage Braack V) was incubated with a dilution series of each test compound (1000 to 0.06 nM) in the presence of 800 Bq of [^18F]-labeled Tau-Reference binder. The samples were shaken at 110 rpm for 45 min at 37° C. Samples were then filtered through GF/B 96 well filter plates and two times washed with 300 μl assay buffer (PBS containing 0.1% BSA and 2% DMSO). Thereafter, filter plates were sealed and a Fuji Film Imaging Plate (BAS-SR2025) were placed on top. The imaging plate was analyzed the next day using a Fuji Film BAS-5000. Non-specific signal was determined with samples containing [^18F]-labeled Tau-Reference binder in the presence of assay buffer missing brain substrate and competitor. Specific binding was calculated by subtracting the non-specific signal from the measured sample signal. The unblocked [^18F]-labeled Tau-Reference binder signal was defined as total binding. IC50 values were calculated by Prism V6 (GraphPad) using total binding as 100%.

MAO-B human-recombinant = molecular target: T1, MAO-B human-recombinant (Homo sapiens, UniProt P27338); assay: MAO-B assay (MAO-Glo); assay type: biochemical; settings: read-out: MAO B binding
T1 construct: purchased Sigma-Aldrich M7441
T1 sequence (P27338 1-520): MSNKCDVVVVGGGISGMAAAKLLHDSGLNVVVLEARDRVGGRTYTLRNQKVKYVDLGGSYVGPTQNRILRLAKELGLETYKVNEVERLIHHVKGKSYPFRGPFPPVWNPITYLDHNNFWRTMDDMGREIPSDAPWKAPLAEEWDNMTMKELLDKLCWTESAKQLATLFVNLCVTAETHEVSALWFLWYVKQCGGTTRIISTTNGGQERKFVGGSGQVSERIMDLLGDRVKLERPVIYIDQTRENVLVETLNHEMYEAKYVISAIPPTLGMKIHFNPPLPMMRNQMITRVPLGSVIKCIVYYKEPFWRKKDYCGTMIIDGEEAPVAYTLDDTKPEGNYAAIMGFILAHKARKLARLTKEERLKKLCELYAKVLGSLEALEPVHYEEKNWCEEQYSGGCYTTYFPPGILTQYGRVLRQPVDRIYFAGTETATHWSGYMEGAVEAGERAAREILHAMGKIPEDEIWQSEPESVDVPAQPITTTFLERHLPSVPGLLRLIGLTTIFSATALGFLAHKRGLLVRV
Protocol: Compounds were tested for their capacity to modulate MAO-B activity within the MAO-Glo™ Assay (Promega, Cat.# V1402). In each well of a 96-well plate, 12.5 μl of 4×MAO Substrate solution (end-concentration in assay: 4 μM) were mixed with 12.5 μl of a 4× solution of the corresponding test compound (end-concentrations ranged from 10 μM to 1.37 nM). In the absence of a test compound (i.e. to gauge the total MAO-B activity), the corresponding volume of MAO-B Reaction Buffer (100 mM HEPES (pH 7.5), 5% glycerol, 10% dimethyl sulphoxide) was added. To initiate the MAO reaction, 25 μl of 2×MAO-B enzyme solution (MAO-B human—recombinant, Sigma-Aldrich, Cat.# M7441; 1 μg MAO-B enzyme/25 μl MAO-B Reaction Buffer) were added per well and mixed briefly. For negative control reactions, 25 μl of MAO-B Reaction Buffer were added. Thereafter the plate was incubated at room temperature for 1 hour, following which, 50 μl of reconstituted Luciferin Detection Reagent were added per well and mixed briefly. The plate was then incubated at room temperature for 20 minutes to generate and stabilize the luminescent signal. The luminescent signal was subsequently measured and recorded on the TopCountNXT™ luminescence counter (PerkinElmer). Data were analyzed and graphs were prepared using the Graphpad Prism 6 software.

MAO-A human-recombinant = molecular target: T2, MAO-A human-recombinant (Homo sapiens, UniProt P21397); assay: Monoamine oxidase A (MAO-A) assay (MAO-Glo); assay type: biochemical; settings: read-out: MAO A binding
T2 construct: purchased Sigma-Aldrich M7316
T2 sequence (P21397 1-527): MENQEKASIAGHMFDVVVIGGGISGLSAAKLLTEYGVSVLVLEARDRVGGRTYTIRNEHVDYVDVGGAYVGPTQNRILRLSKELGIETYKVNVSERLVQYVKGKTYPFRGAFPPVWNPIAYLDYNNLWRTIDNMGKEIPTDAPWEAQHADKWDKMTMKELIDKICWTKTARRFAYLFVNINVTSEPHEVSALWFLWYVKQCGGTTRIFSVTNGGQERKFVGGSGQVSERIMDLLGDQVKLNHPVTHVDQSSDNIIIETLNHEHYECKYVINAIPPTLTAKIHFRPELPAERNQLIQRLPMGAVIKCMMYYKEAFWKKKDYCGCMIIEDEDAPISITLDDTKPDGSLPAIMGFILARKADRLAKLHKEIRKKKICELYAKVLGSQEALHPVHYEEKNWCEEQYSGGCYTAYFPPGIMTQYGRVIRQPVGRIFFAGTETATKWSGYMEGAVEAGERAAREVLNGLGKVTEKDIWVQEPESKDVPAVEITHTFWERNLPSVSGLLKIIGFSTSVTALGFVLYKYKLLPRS
Protocol: Monoamine Oxidase A (MAO-A) Assay
Compounds were tested for their capacity to modulate MAO-A activity within the MAO-Glo™ Assay (Promega, Cat.# V1402). In each well of a 96-well plate, 12.5 μl of 4×MAO Substrate solution (end-concentration in assay: 40 μM) were mixed with 12.5 μl of a 4× solution of the corresponding test compound (end-concentrations ranged from 10 μM to 1.37 nM). In the absence of a test compound (i.e. to gauge the total MAO-A activity), the corresponding volume of MAO Reaction Buffer (100 mM HEPES (pH 7.5), 5% glycerol) was added. To initiate the MAO reaction, 25 μl of 2×MAO-A enzyme solution (MAO-A human-recombinant, Sigma-Aldrich, Cat.# M7316; 1 μg MAO-A enzyme/25 μl MAO Reaction Buffer) were added per well and mixed briefly. For negative control reactions, 25 μl of MAO Reaction Buffer were added. Thereafter the plate was incubated at room temperature for 1 hour, following which, 50 μl of reconstituted Luciferin Detection Reagent were added per well and mixed briefly. The plate was then incubated at room temperature for 20 minutes to generate and stabilize the luminescent signal. The luminescent signal was subsequently measured and recorded on the TopCountNXT™ luminescence counter (PerkinElmer). Data were analyzed and graphs were prepared using the Graphpad Prism 6 software.

Sequence of Tau in human Alzheimer disease brain homogenate (stage Braack V), [18F]-labeled Tau-Reference binder (P10636 623-695 limits assumed): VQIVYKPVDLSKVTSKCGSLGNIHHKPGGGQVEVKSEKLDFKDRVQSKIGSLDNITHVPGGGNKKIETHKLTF

| Compound | pIC50 [1] | pIC50 (MAO-B human-recombinant) | pIC50 (MAO-A human-recombinant) |
| --- | --- | --- | --- |
| FC1CC2(CCN(c3ccc4c(n3)[nH]c3ccncc34)CC2)C1 [Example 28] | 8.28 |  |  |
| FCCOC1CC2(C1)CN(c1ccc3c(n1)[nH]c1ccncc13)C2 [Example 13] | 7.80 | < 6.00 | < 5.70 |
| F[C@@H]1CCN(c2ccc3c(n2)[nH]c2ccncc23)C1 [Example 6] | 8.15 | < 6.00 | 6.03 |
| F[C@@H]1CCCN(c2ccc3c(n2)[nH]c2ccncc23)C1 [Example 25] | 8.27 |  | 5.99 |
| FC1CC2(C1)CN(c1ccc3c(n1)[nH]c1ccncc13)C2 [Example 12] | 7.89 | < 6.00 | 6.24 |
| F[C@H]1CCCN(c2ccc3c(n2)[nH]c2ccncc23)C1 [Example 26] | 7.80 |  |  |
| F[C@H]1CCN(c2ccc3c(n2)[nH]c2ccncc23)C1 [Example 1] | 8.22 | < 6.00 | < 6.00 |
| FCCOCCC1CCN(c2ccc3c(n2)[nH]c2ccncc23)CC1 [Example 21] | 8.82 |  |  |
| OC1(CF)CCN(c2ccc3c(n2)[nH]c2ccncc23)CC1 [Example 8] | 7.40 | < 6.00 | 6.03 |

The remaining lines, values ahead:

| pIC50 [1] | pIC50 (MAO-B human-recombinant) | pIC50 (MAO-A human-recombinant) | Compound |
| --- | --- | --- | --- |
| 8.52 | < 6.00 |  | OC(CF)COC1CCN(c2ccc3c(n2)[nH]c2ccncc23)CC1 (stereo not shown) [Example 7] |
| 8.52 |  |  | FC1CCN(c2ccc3c(n2)[nH]c2ccncc23)CC1 [Example 27] |
| 8.10 |  |  | FCC(F)COC1CCN(c2ccc3c(n2)[nH]c2ccncc23)CC1 (stereo not shown) [Example 24] |
| 8.40 | < 6.00 | < 5.22 | FCCOC1CCN(c2ccc3c(n2)[nH]c2ccncc23)CC1 [Example 2] |
| 8.64 |  |  | [2H]C([2H])(F)CCOC1CCN(c2ccc3c(n2)[nH]c2ccncc23)CC1 [Example 19] |
| 8.22 | < 6.00 | < 5.70 | FCCOCCOC1CCN(c2ccc3c(n2)[nH]c2ccncc23)CC1 [Example 5] |
